Experimental data published in patent US20020114822A1, “Attractants for yellow jackets” (priority 2000, published 2002).

System: yellow jackets indigenous to the west coast (V. pensylvanica)
Experiment: Trials B: trap catch on the west coast, preferred formulation against heptyl butyrate formulations
Type: in vivo
Details: average of two trials of each formulation
Text: In the Examples and reported test results that follow, traps were usually hung in trees approximately four to six feet above the ground. A number of traps were used in each area where tests were made and the traps were spaced anywhere from fifteen to fifty feet apart. The traps used were commercially available traps generally of the top opening lid variety. Holes were made in the lids which were large enough to allow a yellow jacket to crawl inside the trap but small enough to confuse the yellow jackets in finding their way out. A trap of this kind is commercially available from Woodstream, Inc. sold under its trade name Yellow Jacket Trap®. The “vinegar” used in the examples was a vinegar as defined by FDA being a 5% acetic acid solution derived from apples. The “preferred formulation” used in the below reported trials was comprised of 58% apple juice concentrate; 36% vinegar; 5% poultry liver; and 1% dish detergent. Test were conducted on the west coast to compare the effectiveness of the preferred formulation of the invention with commercial formulations containing heptyl butyrate. Two trials of each formulation were made and the numbers indicate the average number of yellow jackets caught in the trials. […]

CCCCCCCOC(=O)CCC [Heptyl Butyrate]
average number of yellow jackets caught: 64
